Measurements from patent publication US20060058324A1, “4-Amino-5-phenyl-7-cyclohexyl-pyrrolo 2,3-d pyrimidine derivatives” (priority 2002, published 2006).

Molecular target: T1, human IGF-IR (Homo sapiens, UniProt P08069)
T1 construct: complete human IGF-IR cDNA: GenBank Acc; No. NM_000875; expressed in transfected cells; host or cells: NIH-3T3 mouse fibroblasts (NWT-21 cell line), prepared as in Kato et al., J. Biol. Chem. 268, 2655-61, 1993
Assay: cellular "Capture ELISA" test for activity against IGF-I induced IGF-IR autophosphorylation
Assay type: cell-based
Settings: IGF-I (10 ng/ml) induced IGF-IR autophosphorylation in NIH-3T3 mouse fibroblasts transfected with human IGF-IR (NWT-21 cell line); 90 min compound incubation
Description: In this assay the activity of the compounds of the invention against Insulin-like growth factor I (IGF-I) induced autophosphorylation of the IGF-IR is determined. The assay is conducted as follows:
The cells which overexpress human IGF-IR are cultured in Dulbecco's minimal essential (DMEM) medium, containing 10% Fetal Calf Serum (FCS). […] On day 3 the medium is discarded and the cells are incubated for 24 h in minimal medium (DMEM, containing 0.5% FCS).
The plates are washed twice with 0.05% (v/v) Tween-20 in Phosphate-Buffered Saline (PBS) and once with nanopure H2O. […] After blocking, the plates are washed once with nanopure H2O.
After incubating the extracts and the secondary antibody for 2 h at 4° C., the extracts are discarded, the plates are washed twice with 0.05% (v/v) Tween-20 in PBS and once with nanopure water.
90 μl/well AP substrate (CDP-Star; obtained from Tropix; Cat. No.: MS100RY) are then added and the plates are incubated for 45 min at RT in the dark, followed by measuring AP activity in a Packard Top Count Microplate Scintillation Counter. The IC50 values for the compounds of formula I are calculated via linear regression analysis using the GraphPad In-stat program (GraphPad Software, USA).
Test for activity against IGF-I induced IGF-IR autophosphorylation using the cellular “Capture ELISA” test
The cellular “Capture ELISA” test is carried out as described above.

T1 sequence (P08069 31-1367): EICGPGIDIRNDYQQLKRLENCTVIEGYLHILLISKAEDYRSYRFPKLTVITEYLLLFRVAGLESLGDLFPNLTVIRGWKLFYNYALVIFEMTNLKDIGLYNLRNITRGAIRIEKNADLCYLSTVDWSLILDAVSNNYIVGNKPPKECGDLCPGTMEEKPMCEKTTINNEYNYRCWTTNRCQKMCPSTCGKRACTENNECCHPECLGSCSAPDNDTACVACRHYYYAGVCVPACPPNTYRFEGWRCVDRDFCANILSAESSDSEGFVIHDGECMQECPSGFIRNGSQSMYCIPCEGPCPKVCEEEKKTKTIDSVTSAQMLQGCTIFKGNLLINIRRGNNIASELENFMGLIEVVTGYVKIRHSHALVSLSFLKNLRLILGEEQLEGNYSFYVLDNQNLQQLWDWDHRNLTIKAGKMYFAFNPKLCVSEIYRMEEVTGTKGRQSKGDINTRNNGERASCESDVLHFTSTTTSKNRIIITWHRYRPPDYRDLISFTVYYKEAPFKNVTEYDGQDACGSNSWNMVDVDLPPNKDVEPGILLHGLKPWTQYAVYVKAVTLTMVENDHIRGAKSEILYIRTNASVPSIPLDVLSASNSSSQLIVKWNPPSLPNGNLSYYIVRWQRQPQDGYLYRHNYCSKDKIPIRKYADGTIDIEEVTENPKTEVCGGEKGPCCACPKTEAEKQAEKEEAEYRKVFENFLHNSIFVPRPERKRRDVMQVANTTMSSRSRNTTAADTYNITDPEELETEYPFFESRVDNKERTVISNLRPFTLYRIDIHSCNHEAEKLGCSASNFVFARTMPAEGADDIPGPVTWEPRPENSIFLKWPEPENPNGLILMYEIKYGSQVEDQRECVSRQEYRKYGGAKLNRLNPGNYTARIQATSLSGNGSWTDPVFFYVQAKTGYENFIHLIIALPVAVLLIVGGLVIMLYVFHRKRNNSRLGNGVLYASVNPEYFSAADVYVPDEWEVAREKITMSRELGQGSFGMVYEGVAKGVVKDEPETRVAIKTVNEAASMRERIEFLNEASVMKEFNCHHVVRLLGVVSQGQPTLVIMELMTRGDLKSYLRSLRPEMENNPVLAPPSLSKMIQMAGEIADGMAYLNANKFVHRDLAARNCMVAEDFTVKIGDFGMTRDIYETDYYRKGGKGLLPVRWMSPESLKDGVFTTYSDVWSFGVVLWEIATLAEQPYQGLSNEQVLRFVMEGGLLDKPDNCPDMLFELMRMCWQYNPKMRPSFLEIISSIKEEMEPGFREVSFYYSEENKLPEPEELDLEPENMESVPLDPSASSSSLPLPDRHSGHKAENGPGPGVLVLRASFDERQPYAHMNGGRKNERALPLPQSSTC

SMILES | IC50
Nc1ncnc2c1c(-c1cccc(OCc3ccccc3)c1)cn2[C@H]1CC[C@H](N2CCC2)CC1 [Example 11, trans-7-(4-Azetidin-1-yl-cyclohexyl)-5-(3-benzyloxy-phenyl)-7H-pyrrolo[2,3-d]pyrimidin-4-ylamine] | 350 nM
Nc1ncnc2c1c(-c1cccc(OCc3ccccc3)c1)cn2[C@H]1CC[C@@H](N2CCC2)CC1 [Example 10, cis-7-(4-Azetidin-1-yl-cyclohexyl)-5-(3-benzyloxy-phenyl)-7H-pyrrolo[2,3-d]pyrimidin-4-ylamine] | 120 nM
CCN(CC)[C@H]1CC[C@H](n2c(C)c(-c3cccc(OCc4ccccc4)c3)c3c(N)ncnc32)CC1 [Example 47, trans-5-(3-Benzyloxy-phenyl)-7-(4-diethylamino-cyclohexyl)-6-methyl-7H-Pyrrolo[2,3-d]pyrimidin-4-ylamine] | 400 nM
